Test results taken from US8648092B2, “Imidazo[1,2-a]pyridine derivatives: preparation and pharmaceutical applications” (MEI Pharma, priority 2005, dated 2014).

Key:
[1] = target: HDAC1 enzyme (recombinant GST-HDAC1) (Homo sapiens (Human), UniProt Q13547); test: In vitro HDAC assay for determination of IC50 values (BIOMOL fluorescent-based HDAC activity assay); assay type: biochemical; conditions: Flur de lys substrate, 2 h room temperature, read-out: IC50 (HDAC 1)
Procedure: Biological Testing and Enzyme Assays Recombinant GST-HDAC1 Protein Expression and Purification
Human cDNA library was prepared using cultured SW620 cells. Amplification of human HDAC1 coding region from this cDNA library was cloned separately into the baculovirus expression pDEST20 vector (GATEWAY Cloning Technology, Invitrogen Pte Ltd). The pDEST20-HDAC1 construct was confirmed by DNA sequencing. Recombinant baculovirus was prepared using the Bac-To-Bac method following the manufacturer's instruction (Invitrogen Pte Ltd).
Expression of GST-HDAC1 was done by infecting SF9 cells (Invitrogen Pte Ltd) with pDEST20-HDAC1 baculovirus at MOI=1 for 48 h. Soluble cell lysate was incubated with pre-equilibrated Glutathione Sepharose 4B beads (Amersham) at 4° C. for 2 h. The beads were washed with PBS buffer for 3 times. The GST-HDAC1 protein was eluted by elution buffer containing 50 mM Tris, pH8.0, 150 mM NaCl, 1% Triton X-100 and 10 mM or 20 mM reduced Glutathione. The purified GST-HDAC1 protein was dialyzed with HDAC storage buffer containing 10 mM Tris, pH7.5, 100 mM NaCl and 3 mM MgCl2. 20% Glycerol was added to purified GST-HDAC1 protein before storage at −80° C.
In Vitro HDAC Assay for Determination of IC50 Values
The assay has been carried out in 96 well format and the BIOMOL fluorescent-based HDAC activity assay has been applied. […] Flur de lys Developer was added and the reaction was incubated for 10 min. Briefly, deacetylation of the substrate sensitizes it to the developer, which then generates a fluorophore. The fluorophore is excited with 360 nm light and the emitted light (460 nm) is detected on a fluorometric plate reader (Tecan Ultra Microplate detection system, Tecan Group Ltd.).
The analytical software, Prism 4.0 (GraphPad Software Inc) has been used to generate IC50 from a series of data.

Colo205 cells = test: Cell-based proliferation assay for determination of GI50 values (CyQUANT); design: species or system human
Procedure, shortened: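 Colo205 cells in RPMI 1640 with 5% FBS, seeded 5000/well and grown 24 h at 37 °C. Exposure to compound lasted 96 h, with growth read by CyQUANT. GI50 = concentration giving 50% growth inhibition, from dose-response curves.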

[2] = Homo sapiens, COLO 205, 96 h treatment

Sequence of HDAC1 enzyme (recombinant GST-HDAC1) (Q13547 whole entry): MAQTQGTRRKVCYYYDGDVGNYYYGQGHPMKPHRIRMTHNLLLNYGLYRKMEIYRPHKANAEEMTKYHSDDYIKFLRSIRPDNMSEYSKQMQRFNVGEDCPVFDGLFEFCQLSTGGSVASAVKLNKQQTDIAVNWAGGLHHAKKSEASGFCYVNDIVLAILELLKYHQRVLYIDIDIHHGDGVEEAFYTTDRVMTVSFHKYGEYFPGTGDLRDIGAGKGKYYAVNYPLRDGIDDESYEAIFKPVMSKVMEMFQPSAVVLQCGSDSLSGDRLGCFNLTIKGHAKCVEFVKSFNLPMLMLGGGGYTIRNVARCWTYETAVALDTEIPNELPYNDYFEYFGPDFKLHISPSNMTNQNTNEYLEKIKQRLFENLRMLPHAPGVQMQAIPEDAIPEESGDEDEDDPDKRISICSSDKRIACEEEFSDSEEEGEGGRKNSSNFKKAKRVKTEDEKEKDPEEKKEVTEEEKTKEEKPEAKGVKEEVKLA

SMILES | IC50 [1] [µM] | GI50 (Colo205 cells; [2]) [µM] | GI50 (Colo205 cells; Homo sapiens, COLO 205, 96 h, 96 h treatment) [µM] | GI50 (Colo205 cells; 96 h treatment) [µM]
CCCc1nc2cc(/C=C/C(=O)NO)ccn2c1CN(CC)CCC(C)C [Compound 126, 3-(3-{[Ethyl-(3-methyl-butyl)-amino]-methyl}-2-propyl-imidazo[1,2-a]pyridin-7-yl)-N-hydroxy-acrylamide] | 0.03 | 0.08 | – | –
CCN(CCC(C)C)Cc1c(-c2ccccc2)nc2cc(/C=C/C(=O)NO)ccn12 [Compound 121, 3-(3-{[Ethyl-(3-methyl-butyl)-amino]-methyl}-2-phenyl-imidazo[1,2-a]pyridin-7-yl)-N-hydroxy-acrylamide] | 0.03 | 0.49 | – | –
CCCCCCc1nc2cc(/C=C/C(=O)NO)ccn2c1NCCC(=O)NCCOC [Compound 24, 3-{2-Hexyl-3-[2-(2-methoxy-ethylcarbamoyl)-ethylamino]-imidazo[1,2-a]pyridin-7-yl}-N-hydroxy-acrylamide] | 0.13 | 40 | – | –
CCCCCCc1nc2cc(/C=C/C(=O)NO)ccn2c1NCCC(=O)NCCN(CC)CC [Compound 28, 3-{3-[2-(2-Diethylamino-ethylcarbamoyl)-ethylamino]-2-hexyl-imidazo[1,2-a]pyridin-7-yl}-N-hydroxy-acrylamide] | 0.11 | 7.3 | – | –
CN(CCC(C)(C)C)Cc1c(C(C)(C)C)nc2cc(/C=C/C(=O)NO)ccn12 [Compound 109, 3-(2-tert-Butyl-3-{[(3,3-dimethyl-butyl)-methyl-amino]-methyl}-imidazo[1,2-a]pyridin-7-yl)-N-hydroxy-acrylamide] | 0.27 | 0.73 | – | –
CCCCCc1nc2cc(/C=C/C(=O)NO)ccn2c1NCCOC [Compound 17, (E)-N-hydroxy-3-(3-(2-methoxyethylamino)-2-pentylimidazo[1,2-a]pyridin-7-yl)acrylamide] | 0.3 | 9.9 | – | –
CN(Cc1c(C(C)(C)C)nc2cc(C=CC(=O)NO)ccn12)CC(C)(C)C [Compound 104, 3-(2-tert-Butyl-3-{[(2,2-dimethyl-propyl)-methyl-amino]-methyl}-imidazo[1,2-a]pyridin-7-yl)-N-hydroxy-acrylamide] | 0.78 | 6.3 | – | –
CCCc1nc2cc(/C=C/C(=O)NO)ccn2c1CN(CC)CCC(C)(C)C [Compound 127, 3-(3-{[(3,3-Dimethyl-butyl)-ethyl-amino]-methyl}-2-propyl-imidazo[1,2-a]pyridin-7-yl)-N-hydroxy-acrylamide] | 0.02 | – | 0.07 | –
CC(C)CCN(C)Cc1c(C(C)(C)C)nc2cc(/C=C/C(=O)NO)ccn12 [Compound 108, 3-(2-tert-Butyl-3-{[methyl-(3-methyl-butyl)-amino]-methyl}-imidazo[1,2-a]pyridin-7-yl)-N-hydroxy-acrylamide] | 0.35 | 0.9 | – | –
CCCCCCc1nc2cc(/C=C/C(=O)NO)ccn2c1NCCC(=O)N(CCOC)C(C)C [Compound 38, 3-(2-Hexyl-3-{2-[isopropyl-(2-methoxy-ethyl)-carbamoyl]-ethylamino}-imidazo[1,2-a]pyridin-7-yl)-N-hydroxy-acrylamide] | 0.36 | 3.5 | – | –
CCNCc1c(C(C)(C)C)nc2cc(/C=C/C(=O)NO)ccn12 [Compound 84, 3-(2-tert-Butyl-3-ethylaminomethyl-imidazo[1,2-a]pyridin-7-yl)-N-hydroxy-acrylamide] | 0.06 | 0.47 | – | –
CCCN(Cc1c(C)nc2cc(C=CC(=O)NO)ccn12)CC(C)(C)C [Compound 110, 3-(3-{[(2,2-Dimethyl-propyl)-propyl-amino]-methyl}-2-methyl-imidazo[1,2a]pyridin-7-yl)-N-hydroxy-acrylamide] | 0.13 | – | – | 0.7
CC(C)(C)NCc1c(C(C)(C)C)nc2cc(/C=C/C(=O)NO)ccn12 [Compound 69, 3-[2-tert-Butyl-3-(tert-butylamino-methyl)-imidazo[1,2-a]pyridin-7-yl]-N-hydroxy-acrylamide] | 0.13 | 0.74 | – | –
